Where a SMILES comes first, the peptide text is derived from it. [ ]: non-standard residue; d: D form. ξ: configuration not given here. NMeI = CC[C@H](C)[C@H](NC)C(=O)O; dIle(3ξ) = CCC(C)[C@@H](N)C(=O)O; dNMeF = CN[C@H](Cc1ccccc1)C(=O)O; NMeL = CN[C@@H](CC(C)C)C(=O)O; dNMeL = CN[C@H](CC(C)C)C(=O)O; NMeA = CN[C@@H](C)C(=O)O; dNMeA = CN[C@H](C)C(=O)O; Aib = CC(C)(N)C(=O)O
Tests used:
[1] = Caco-2 permeability assay (apical to basolateral); assay type: in vitro ADME, human; conditions: for Papp A→B: Caco-2, Caco_Papp_Average; for Papp at 90 min, 50 µM: human, Caco-2
Method: (§1) Human colon adenocarcinoma-derived Caco-2 cell line was used as a model system to investigate the intestinal epithelial permeability of our designs. Caco-2 cells were propagated in T125 flasks (Corning, Merck) using Dulbecco’s modified Eagle medium supplemented with 10% (v/v) fetal bovine serum, 1% (v/v) nonessential amino acids, and 1% (v/v) penicillin-streptomycin (Gibco, Thermo Fisher Scientific) at 37°C in an atmosphere of 5% CO2. Cells were subcultured when they reached 80% confluence.
(§2) The permeability of designed peptides was evaluated using an accelerated 6-day Caco-2 permeability assay as described previously ([Sevin et al., 2013]). In brief, cells were seeded into the 12-well Transwell plates with 0.4 μm polyester membrane inserts (Corning, Merck) to give 4.0 × 10^5 cells/well. The complete assay medium contained Dulbecco’s modified Eagle medium supplemented with 10% (v/v) fetal bovine serum, 1% (v/v) nonessential amino acids, and 0.4 μg/mL puromycin. The medium in plates was renewed every second day. The inserts received 0.75 mL of assay medium in the upper compartment (apical chamber) and 1.5 mL in the bottom compartment (basolateral chamber) individually. After 6-day incubation or until the cells formed monolayers, the medium in the apical and basolateral chamber was replaced with peptide solutions at 50 μM or Hanks' Balanced Salt Solution (HBSS), separately. The plates were incubated for 90 min at 37°C on an orbital shaker (60 rpm). The peptide concentration of solutions in the apical and basolateral compartments was subsequently quantified using LC-MS (Qstar Elite, AB Sciex Australia) to evaluate the transmembrane flux of peptides in the apical-to-basolateral direction. Membrane integrity of the Caco-2 cell monolayer was validated using trans-epithelial electrical resistance (TEER) measurements before and after the assays. Atenolol and quinidine were included as negative and positive controls in all assays.

Caco-2 cells = assay: Caco-2 permeability assay (apical to basolateral); assay type: in vitro ADME, human; conditions: Caco-2
Method: as §1, §2

[2] = PAMPA
in vitro = conditions: PAMPA, PAMPA_Papp_Avg

CC(C)C[C@@H]1C(=O)N[C@H](CC(C)C)C(=O)N2CCC[C@@H]2C(=O)N2CCC[C@@H]2C(=O)N(C)[C@@H](C)C(=O)N[C@H](Cc2ccccc2)C(=O)N[C@@H](C)C(=O)N(C)[C@@H](CC(C)C)C(=O)N1C [Design D8.10, DPRO DPRO *ALA DPHE ALA *LEU *DLEU DLEU] (cyclo(A[NMeL][dNMeL][dL][dP][dP][NMeA][dF]))
Papp A→B [1]: 39.1 nm/s
Caco_R1 (Caco-2 cells): 3.8
Caco_R3 (Caco-2 cells): 3.36
PAMPA_R1 [2]: 8.77E-07
PAMPA_R3 [2]: 1.78E-06
Papp (in vitro): 12.3 nm/s

CC[C@H](C)[C@@H]1NC(=O)[C@H]2CCCN2C(=O)[C@@H]2CCCN2C(=O)[C@@H](C(C)C)NC(=O)[C@@H](C)N(C)C(=O)[C@H](C)N(C)C(=O)[C@@H](CC(C)C)N(C)C(=O)[C@@H](C(C)C)NC1=O [Design D8.26, DVAL *DLEU *ALA *DALA DVAL PRO DPRO ILE] (cyclo(I[dV][dNMeL][NMeA][dNMeA][dV]P[dP]))
Papp A→B [1]: 6.47 nm/s
Caco_R1 (Caco-2 cells): 0.79
Caco_R3 (Caco-2 cells): 0.94
PAMPA_R1 [2]: 1.58E-07
PAMPA_R3 [2]: 2.69E-07
Papp (in vitro): 2.55 nm/s

CC(C)C[C@@H]1NC(=O)[C@H](CC(C)C)N(C)C(=O)[C@H]2CCCN2C(=O)[C@@H](C)NC(=O)[C@@H](C)N(C)C(=O)[C@@H](C(C)C)NC(=O)[C@@H](CC(C)C)N(C)C(=O)[C@@H]2CCCN2C1=O [Design D8.30, DALA DPRO *LEU LEU PRO *DLEU DVAL *DALA] (cyclo(LP[dNMeL][dV][dNMeA][dA][dP][NMeL]))
Papp A→B [1]: 39.7 nm/s
Caco_R1 (Caco-2 cells): 4.11
Caco_R3 (Caco-2 cells): 2.89
PAMPA_R1 [2]: 4.61E-06
PAMPA_R3 [2]: 4.25E-06
Papp (in vitro): 43.2 nm/s

CC(C)C[C@@H]1C(=O)N[C@H](CC(C)C)C(=O)N2CCC[C@@H]2C(=O)N2CCC[C@@H]2C(=O)N(C)[C@@H](CC(C)C)C(=O)N[C@H](CC(C)C)C(=O)N2CCC[C@@H]2C(=O)N2CCC[C@H]2C(=O)N1C [Design D8.32, DPRO DPRO *LEU DLEU DPRO PRO *DLEU DLEU] (cyclo([dNMeL][dL][dP][dP][NMeL][dL][dP]P))
Papp A→B [1]: 27.3 nm/s
Caco_R1 (Caco-2 cells): 2.78
Caco_R3 (Caco-2 cells): 2.54
PAMPA_R1 [2]: 5.82E-06
PAMPA_R3 [2]: 5.16E-06
Papp (in vitro): 53.7 nm/s

CC[C@@H](C)[C@H]1NC(=O)[C@H]2CCCN2C(=O)[C@@H]2CCCN2C(=O)[C@@H]([C@H](C)CC)NC(=O)[C@@H](Cc2ccccc2)NC(=O)[C@@H](Cc2ccccc2)N(C)C(=O)[C@@H]2CCCN2C(=O)[C@@H](C(C)C)NC1=O [Design D8.33, DPHE DILE PRO DPRO DILE DVAL PRO *DPHE] (cyclo(P[dNMeF][dF][dI]P[dP][dI][dV]))
Papp A→B [1]: 191 nm/s
Papp at 90 min, 50 µM [1]: > 100 nm/s
Caco_R1 (Caco-2 cells): 18.4
Caco_R3 (Caco-2 cells): 16.82
PAMPA_R1 [2]: 5.91E-06
PAMPA_R3 [2]: 1.01E-05
Papp (in vitro): 67.2 nm/s

CC[C@H](C)[C@@H]1NC(=O)[C@@H](CC(C)C)N(C)C(=O)[C@@H]2CCCN2C(=O)[C@H](C(C)C)NC(=O)C(C)(C)NC(=O)[C@H](CC(C)C)NC(=O)C(C)(C)NC(=O)[C@@H]2CCCN2C(=O)[C@H]2CCCN2C1=O [Design D9.1, DPRO PRO AIB LEU AIB VAL PRO *DLEU ILE] (cyclo([Aib]L[Aib]VP[dNMeL]I[dP]P))
Papp A→B [1]: 8.97 nm/s
Caco_R1 (Caco-2 cells): 0.42
Caco_R3 (Caco-2 cells): 2.09
PAMPA_R1 [2]: 1.43E-06
PAMPA_R3 [2]: 1.63E-06
Papp (in vitro): 15.9 nm/s

CC[C@@H](C)[C@H]1NC(=O)[C@H](CC(C)C)NC(=O)[C@@H](CC(C)C)NC(=O)[C@H](C(C)C)NC(=O)[C@@H](Cc2ccccc2)N(C)C(=O)[C@@H]2CCCN2C(=O)[C@@H](CC(C)C)NC(=O)[C@H](CC(C)C)N(C)C(=O)[C@H]2CCCN2C1=O [Design D9.3, LEU DILE DPRO *LEU DLEU PRO *DPHE VAL DLEU] (cyclo(L[dI][dP][NMeL][dL]P[dNMeF]V[dL]))
Papp A→B [1]: 35.3 nm/s
Caco_R1 (Caco-2 cells): 2.82
Caco_R3 (Caco-2 cells): 3.81
PAMPA_R1 [2]: 3.06E-06
PAMPA_R3 [2]: 2.01E-06
Papp (in vitro): 23.3 nm/s

CCC(C)[C@H]1NC(=O)[C@H](CC(C)C)NC(=O)[C@@H](C)N(C)C(=O)[C@@H]2CCCN2C(=O)[C@H](C)NC(=O)[C@@H](CC(C)C)NC(=O)[C@H]2CCCN2C(=O)[C@H](C(C)C)NC(=O)[C@@H](CC(C)C)N(C)C1=O (stereo partly drawn) [Design D9.30, DPRO DLEU ALA PRO *DALA LEU DILE *DLEU VAL] (cyclo(AP[dNMeA]L[dIle(3ξ)][dNMeL]V[dP][dL]))
Papp A→B [1]: 23.2 nm/s
Caco_R1 (Caco-2 cells): 1.9
Caco_R3 (Caco-2 cells): 2.72
PAMPA_R1 [2]: 1.58E-06
PAMPA_R3 [2]: 1.58E-06
Papp (in vitro): 16 nm/s

CC[C@@H](C)[C@H]1NC(=O)[C@H](CC(C)C)N(C)C(=O)[C@H]2CCCN2C(=O)[C@H](CC(C)C)NC(=O)[C@H](Cc2ccccc2)N(C)C(=O)[C@H](CC(C)C)N(C)C(=O)[C@@H](C(C)C)NC(=O)[C@H](C)NC(=O)[C@H]2CCCN2C(=O)[C@@H]2CCCN2C1=O [Design D10.17.p2, *LEU *PHE LEU DPRO *LEU DILE PRO DPRO ALA DVAL]
Papp A→B [1]: 87 nm/s
Caco_R1 (Caco-2 cells): 12.57
Caco_R3 (Caco-2 cells): 7.84
PAMPA_R1 [2]: 3.37E-06
PAMPA_R3 [2]: 2.91E-06
Papp (in vitro): 26.9 nm/s

CC[C@H](C)[C@H]1C(=O)N[C@H](C)C(=O)N[C@@H](CC(C)C)C(=O)N[C@@H](C(C)C)C(=O)N2CCC[C@@H]2C(=O)N(C)[C@@H](CC(C)C)C(=O)N[C@@H](C(C)C)C(=O)N2CCC[C@H]2C(=O)N(C)[C@H](CC(C)C)C(=O)N[C@@H](C(C)C)C(=O)N1C [Design D10.19, DALA LEU VAL DPRO *LEU VAL PRO *DLEU VAL *ILE] (cyclo(LV[dP][NMeL]VP[dNMeL]V[NMeI][dA]))
Papp A→B [1]: 171 nm/s
Papp at 90 min, 50 µM [1]: > 100 nm/s
Caco_R1 (Caco-2 cells): 15.38
Caco_R3 (Caco-2 cells): 17.24
PAMPA_R1 [2]: 7.24E-06
PAMPA_R3 [2]: 7.38E-06
Papp (in vitro): 63.6 nm/s

CC[C@@H](C)[C@H]1NC(=O)[C@H](Cc2ccccc2)NC(=O)[C@@H](CC(C)C)N(C)C(=O)[C@@H]2CCCN2C(=O)[C@@H](C(C)C)NC(=O)[C@@H](C)N(C)C(=O)[C@H]2CCCN2C(=O)[C@@H](CC(C)C)NC(=O)[C@H](CC(C)C)NC(=O)[C@@H]2CCCN2C1=O [Design D10.30, PRO *DLEU PHE DILE PRO LEU DLEU DPRO *DALA DVAL] (cyclo(F[dI]PL[dL][dP][dNMeA][dV]P[dNMeL]))
Papp A→B [1]: 161 nm/s
Papp at 90 min, 50 µM [1]: > 100 nm/s
Caco_R1 (Caco-2 cells): 15.3
Caco_R3 (Caco-2 cells): 15.5
PAMPA_R1 [2]: 5.23E-06
PAMPA_R3 [2]: 4.05E-06
Papp (in vitro): 47.8 nm/s

CC[C@H](C)[C@@H]1NC(=O)[C@@H](CC(C)C)NC(=O)[C@@H](C)N(C)C(=O)[C@H](Cc2ccccc2)NC(=O)[C@@H](CC(C)C)NC(=O)[C@@H](C)N(C)C(=O)[C@@H]2CCCN2C(=O)[C@H](C(C)C)NC(=O)[C@H]2CCCN2C(=O)[C@@H]2CCCN2C1=O [Design D10.31, PHE *DALA DLEU ILE PRO DPRO VAL PRO *DALA DLEU] (cyclo(F[dNMeA][dL]IP[dP]VP[dNMeA][dL]))
Papp A→B [1]: 27.9 nm/s
Caco_R1 (Caco-2 cells): 1.93
Caco_R3 (Caco-2 cells): 3.02
PAMPA_R1 [2]: 1.81E-06
PAMPA_R3 [2]: 2.20E-06
Papp (in vitro): 19 nm/s

CC[C@@H](C)[C@H]1NC(=O)[C@@H](Cc2ccccc2)NC(=O)[C@@H](CC(C)C)NC(=O)[C@@H]2CCCN2C(=O)[C@H]2CCCN2C(=O)[C@H](CC(C)C)NC(=O)[C@H](CC(C)C)NC(=O)[C@@H](CC(C)C)N(C)C(=O)[C@H](C)N(C)C(=O)[C@H]2CCCN2C1=O [Design D10.34, DPHE DILE DPRO *ALA *DLEU LEU LEU DPRO PRO DLEU] (cyclo([dL][dF][dI][dP][NMeA][dNMeL]LL[dP]P))
Papp A→B [1]: 150 nm/s
Papp at 90 min, 50 µM [1]: > 100 nm/s
Caco_R1 (Caco-2 cells): 14.68
Caco_R3 (Caco-2 cells): 14.14
PAMPA_R1 [2]: 4.77E-06
PAMPA_R3 [2]: 4.57E-06
Papp (in vitro): 45.1 nm/s

CC[C@H](C)[C@@H]1NC(=O)[C@@H](C(C)C)NC(=O)[C@@H](CC(C)C)N(C)C(=O)[C@H]2CCCN2C(=O)[C@@H](CC(C)C)NC(=O)[C@@H](CC(C)C)N(C)C(=O)[C@H](CC(C)C)NC(=O)[C@H]2CCCN2C(=O)[C@H](C)N(C)C(=O)[C@H]2CCCN2C1=O [Design D10.41, DPRO *DLEU DVAL ILE DPRO *ALA DPRO LEU *DLEU DLEU] (cyclo(I[dP][NMeA][dP]L[dNMeL][dL][dP][dNMeL][dV]))
Papp A→B [1]: 76.6 nm/s
Caco_R1 (Caco-2 cells): 4.42
Caco_R3 (Caco-2 cells): 10.34
PAMPA_R1 [2]: 5.92E-06
PAMPA_R3 [2]: 5.38E-06
Papp (in vitro): 56.9 nm/s

Source: paper PMC9490236, “Accurate de novo design of membrane-traversing macrocycles” (Cell, 2022)
